# Reference: PubChem BioAssay AID2060903 (Molecular Pharmacology Branch, DTP, NCI, 2025)
# Tested on: 377384-186-R-J1-PDC complex spheroid viability
# Experiment: Anticancer human tumor 377384-186-R-J1-PDC patient-derived pancreatic carcinoma cell line growth inhibition [RAS]
# Details: for IC50: curve of first compound; for viability, T/C: stronger effect = lower value
# Excerpt: RAS pathway inhibitors in Combinations in Complex Spheroids
# A high-throughput screen of multi-cell type tumor spheroids was designed to identify active combinations of RAS pathway inhibitors and targeted small molecules. Complex spheroids include a stromal component modeled by human endothelial cells (HUVEC) and fibroblasts modeled by human mesenchymal stem cells (MSCs). The concentration ranges selected for each drug and investigational agent were based upon clinically achievable concentrations if the clinical Cmax of the agent was known.
# Compounds. The drugs and investigational agents: abemaciclib (NSC768073), cobimetinib (NSC768068), divarasib (GDC6063, NSC841802), docetaxel (NSC628503), GDC-1971 (RLY-1971, NSC841576), gemcitabine (NSC613327), inavolisib (NSC800729), ipatasertib (NSC767898), KB-0742 (NSC834161), MRTX-1133 (NSC836407), osimertinib (NSC779217), RMC-4630 (NSC839698), RMC-6236 (NSC851965), RMC-6291 (NSC852671), Ro-3306 (NSC812927), sapanisertib (NSC764658), SN-38 (NSC673596), staurosporine (NSC755774), SY5609 (NSC837396), and tovorafenib (DAY101, NSC766906), were obtained from the National Cancer Institute (NCI) Developmental Therapeutics Program Chemical Repository. The FDA-approved anticancer drug set is available from the NCI Developmental Therapeutics Program. […] The stock solutions were prepared in dimethyl sulfoxide (DMSO, Sigma-Aldrich, St. Louis, MO, cat. D2650) at 800-fold the tested concentration and stored at -70 degrees C prior to their use. All drugs and investigational agents were tested over a range starting from a high concentration at or near the clinical Cmax and decreasing in half-log increments. If the clinical Cmax for an agent had not been determined, the highest concentration tested was 10 microM.
# Cell Culture. All cells were maintained in an incubator at 37 degrees C and 5% CO2 with 95% humidity. The PDC lines were cultured according to standard operating procedures established by the NCI PDMR. All PDCs were thawed and cultured in Matrigel-coated flasks prepared with a working solution of 1X Ham's F-12 nutrient mix, without supplementation (Invitrogen, Waltham, MA, cat. 11765054), 100 U/mL penicillin-streptomycin (Invitrogen, cat. 15140122), and 2.5% Matrigel (Corning Inc., Corning, NY, cat. 354248) for the first three passages. The 362531-283-R-J2-PDC and 782815-120-R-J1-PDC lines were cultured in 6C/Colon 1B media, which includes advanced DMEM/F-12 (Thermo Fisher Scientific, cat. 12634028), 10 mM HEPES (Thermo Fisher Scientific, cat. 15630080), 1X GlutaMAX supplement (Thermo Fisher Scientific, cat. 35050061), 0.1 mg/mL primocin (InvivoGen, San Diego, CA, cat. ant-pm-2), 10% defined fetal bovine serum, heat inactivated (HyClone Laboratories Inc., Logan, UT, cat. SH30070.03HI), 50% L-WRN conditioned media (ATCC, cat. CRL-3276), 1.25 mM N-Acetyl-L-cysteine (Sigma-Aldrich, cat. A9165), 10 mM nicotinamide (Sigma-Aldrich, cat. N0636), 1X B-27 supplement (Thermo Fisher Scientific, cat. 17504044), 1X N-2 supplement (Thermo Fisher Scientific, cat. 17502048), 50 ng/mL human EGF (Thermo Fisher Scientific, cat. PHG0311), and 10 microM Y-27632 dihydrochloride (Tocris Bioscience, cat. 1254). The K12877-001-R-J1-PDC line was cultured in 6I media, which includes all 6C/Colon 1B media plus 10 ng/mL human FGF-10 (PeproTech, cat. 100-26), 1 ng/mL human FGF-2 (PeproTech, cat. 100-18B), 1 µM prostaglandin E2 (Tocris Bioscience, cat. 2296), […] hydrocortisone (Sigma-Aldrich, cat. H4001), and […] bovine insulin (Sigma-Aldrich, cat. I6634). The K86415-001-R-J1-PDC line was cultured in 6D media, which includes all 6C/Colon 1B media components minus the L-WRN conditioned media. The 485176-168-R4-J1-PDC was cultured in PANC media, which includes all 6C/Colon 1B media plus 100 ng/mL human FGF-10 (PeproTech, cat. 100-26), 500 nM SB-431542 (Selleckchem, cat. S1067), and 10 nM gastrin (Tocris Bioscience, cat. 3006). […]
# 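Further: spheroids exposed to compounds for seven days before readout.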
structure (smiles),measurement,setting,value
CCN1CCN(Cc2ccc(Nc3ncc(F)c(-c4cc(F)c5nc(C)n(C(C)C)c5c4)n3)nc2)CC1 + CCn1c(-c2cc(N3CCN(C)CC3)cnc2C(C)OC)c2c3cc(ccc31)-c1csc(n1)CC(NC(=O)C1CC1C)C(=O)N1CCCC(N1)C(=O)OCC(C)(C)C2,IC50,second compound 0.000949 µM,< 3.16 nM
same,IC50,second compound 0.003 µM,< 3.16 nM
same,IC50,second compound 0.00949 µM,< 3.16 nM
same,IC50,second compound 0.03 µM,< 3.16 nM
same,IC50,second compound 0.0949 µM,< 3.16 nM
same,IC50,second compound 0.3 µM,< 3.16 nM
same,"viability, T/C","second compound 0.000949 µM, first compound 0.00316 µM",49.8%
same,"viability, T/C","second compound 0.000949 µM, first compound 0.01 µM",45%
same,"viability, T/C","second compound 0.000949 µM, first compound 0.0316 µM",35.2%
same,"viability, T/C","second compound 0.000949 µM, first compound 0.1 µM",24.1%
same,"viability, T/C","second compound 0.000949 µM, first compound 0.316 µM",16.6%
same,"viability, T/C","second compound 0.000949 µM, first compound 1 µM",11.2%
same,"viability, T/C","second compound 0.003 µM, first compound 0.00316 µM",15.5%
same,"viability, T/C","second compound 0.003 µM, first compound 0.01 µM",14.5%
same,"viability, T/C","second compound 0.003 µM, first compound 0.0316 µM",15.9%
same,"viability, T/C","second compound 0.003 µM, first compound 0.1 µM",10.2%
same,"viability, T/C","second compound 0.003 µM, first compound 0.316 µM",6.69%
same,"viability, T/C","second compound 0.003 µM, first compound 1 µM",4.94%
same,"viability, T/C","second compound 0.00949 µM, first compound 0.00316 µM",6.06%
same,"viability, T/C","second compound 0.00949 µM, first compound 0.01 µM",5.48%
same,"viability, T/C","second compound 0.00949 µM, first compound 0.0316 µM",4.58%
same,"viability, T/C","second compound 0.00949 µM, first compound 0.1 µM",3.84%
same,"viability, T/C","second compound 0.00949 µM, first compound 0.316 µM",3.67%
same,"viability, T/C","second compound 0.00949 µM, first compound 1 µM",2.8%
same,"viability, T/C","second compound 0.03 µM, first compound 0.00316 µM",3.02%
same,"viability, T/C","second compound 0.03 µM, first compound 0.01 µM",2.33%
same,"viability, T/C","second compound 0.03 µM, first compound 0.0316 µM",2.87%
same,"viability, T/C","second compound 0.03 µM, first compound 0.1 µM",2.54%
same,"viability, T/C","second compound 0.03 µM, first compound 0.316 µM",2.06%
same,"viability, T/C","second compound 0.03 µM, first compound 1 µM",2.27%
same,"viability, T/C","second compound 0.0949 µM, first compound 0.00316 µM",1.82%
same,"viability, T/C","second compound 0.0949 µM, first compound 0.01 µM",1.82%
same,"viability, T/C","second compound 0.0949 µM, first compound 0.0316 µM",1.85%
same,"viability, T/C","second compound 0.0949 µM, first compound 0.1 µM",2.2%
same,"viability, T/C","second compound 0.0949 µM, first compound 0.316 µM",2.06%
same,"viability, T/C","second compound 0.0949 µM, first compound 1 µM",1.76%
same,"viability, T/C","second compound 0.3 µM, first compound 0.00316 µM",1.71%
same,"viability, T/C","second compound 0.3 µM, first compound 0.01 µM",3.5%
same,"viability, T/C","second compound 0.3 µM, first compound 0.0316 µM",2.34%
same,"viability, T/C","second compound 0.3 µM, first compound 0.1 µM",1.78%
same,"viability, T/C","second compound 0.3 µM, first compound 0.316 µM",2.27%
same,"viability, T/C","second compound 0.3 µM, first compound 1 µM",1.13%
CC(C)NCC(C(=O)N1CCN(c2ncnc3c2C(C)CC3O)CC1)c1ccc(Cl)cc1 (centres undefined) + C#Cc1c(F)ccc2cc(O)cc(-c3ncc4c(N5CC6CCC(C5)N6)nc(OCC56CCCN5CC(F)C6)nc4c3F)c12,IC50,second compound 0.0316 µM,< 31.6 nM
same,IC50,second compound 0.1 µM,< 31.6 nM
same,IC50,second compound 0.316 µM,< 31.6 nM
same,IC50,second compound 1 µM,< 31.6 nM
same,IC50,second compound 3.16 µM,< 31.6 nM
same,IC50,second compound 10 µM,< 31.6 nM
same,"viability, T/C","second compound 0.0316 µM, first compound 0.0316 µM",22.6%
same,"viability, T/C","second compound 0.0316 µM, first compound 0.1 µM",18.8%
same,"viability, T/C","second compound 0.0316 µM, first compound 0.316 µM",18.2%
same,"viability, T/C","second compound 0.0316 µM, first compound 1 µM",16.9%
same,"viability, T/C","second compound 0.0316 µM, first compound 3.16 µM",11%
same,"viability, T/C","second compound 0.0316 µM, first compound 10 µM",9.91%
same,"viability, T/C","second compound 0.1 µM, first compound 0.0316 µM",10.2%
same,"viability, T/C","second compound 0.1 µM, first compound 0.1 µM",10.5%
same,"viability, T/C","second compound 0.1 µM, first compound 0.316 µM",8.54%
same,"viability, T/C","second compound 0.1 µM, first compound 1 µM",9.68%
same,"viability, T/C","second compound 0.1 µM, first compound 3.16 µM",6.47%
same,"viability, T/C","second compound 0.1 µM, first compound 10 µM",3.99%
same,"viability, T/C","second compound 0.316 µM, first compound 0.0316 µM",4.76%
same,"viability, T/C","second compound 0.316 µM, first compound 0.1 µM",4.25%
same,"viability, T/C","second compound 0.316 µM, first compound 0.316 µM",5.02%
same,"viability, T/C","second compound 0.316 µM, first compound 1 µM",3.37%
same,"viability, T/C","second compound 0.316 µM, first compound 3.16 µM",3.87%
same,"viability, T/C","second compound 0.316 µM, first compound 10 µM",3.34%
same,"viability, T/C","second compound 1 µM, first compound 0.0316 µM",3.41%
same,"viability, T/C","second compound 1 µM, first compound 0.1 µM",17.1%
same,"viability, T/C","second compound 1 µM, first compound 0.316 µM",2.83%
same,"viability, T/C","second compound 1 µM, first compound 1 µM",2.26%
same,"viability, T/C","second compound 1 µM, first compound 3.16 µM",1.72%
same,"viability, T/C","second compound 1 µM, first compound 10 µM",1.05%
same,"viability, T/C","second compound 3.16 µM, first compound 0.0316 µM",2.28%
same,"viability, T/C","second compound 3.16 µM, first compound 0.1 µM",2.34%
same,"viability, T/C","second compound 3.16 µM, first compound 0.316 µM",1.81%
same,"viability, T/C","second compound 3.16 µM, first compound 1 µM",1.19%
same,"viability, T/C","second compound 3.16 µM, first compound 3.16 µM",1.15%
same,"viability, T/C","second compound 3.16 µM, first compound 10 µM",0.64%
same,"viability, T/C","second compound 10 µM, first compound 0.0316 µM",1.35%
same,"viability, T/C","second compound 10 µM, first compound 0.1 µM",1.29%
same,"viability, T/C","second compound 10 µM, first compound 0.316 µM",0.78%
same,"viability, T/C","second compound 10 µM, first compound 1 µM",0.79%
same,"viability, T/C","second compound 10 µM, first compound 3.16 µM",0.61%
same,"viability, T/C","second compound 10 µM, first compound 10 µM",0.18%
